Measurements reported in PubChem BioAssay (NCI).
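Where inhibition never reached the appropriate level, the endpoint shown equals the highest concentration tested. Otherwise, values were interpolated linearly from a five-concentration, 48-hour dose response in 96-well plates. The concentration for full growth arrest is given as TGI.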

Legend:
Assay in all cases: NCI tumour cell line growth inhibition, 48 h
[1] = test system: 786-0 renal
[2] = test system: A549 NSCLC
[3] = test system: ACHN renal
[4] = test system: CAKI-1 renal
[5] = test system: COLO 205 colon
[6] = test system: DLD-1 colon
[7] = test system: DMS 114 small cell lung
[8] = test system: DMS 273 small cell lung
[9] = test system: EKVX NSCLC
[10] = test system: HCC-2998 colon
[11] = test system: HCT-116 colon
[12] = test system: HCT-15 colon
[13] = test system: HL-60(TB) leukemia
[14] = test system: HOP-18 NSCLC
[15] = test system: HOP-62 NSCLC
[16] = test system: HT29 colon
[17] = test system: IGROV1 ovarian
[18] = test system: K-562 leukemia
[19] = test system: KM12 colon
[20] = test system: KM20L2 colon
[21] = test system: LOX IMVI melanoma
[22] = test system: LXFL 529 NSCLC
[23] = test system: M14 melanoma
[24] = test system: M19-MEL melanoma
[25] = test system: MALME-3M melanoma
[26] = test system: MOLT-4 leukemia
[27] = test system: NCI-H226 lung
[28] = test system: NCI-H23 lung
[29] = test system: NCI-H460 lung
[30] = test system: NCI-H522 lung
[31] = test system: OVCAR-3 ovarian
[32] = test system: OVCAR-4 ovarian
[33] = test system: OVCAR-5 ovarian
[34] = test system: OVCAR-8 ovarian
[35] = test system: RPMI-8226 leukemia
[36] = test system: RXF 393 renal
[37] = test system: SF-268 CNS
[38] = test system: SF-295 CNS
[39] = test system: SK-MEL-2 melanoma
[40] = test system: SK-MEL-28 melanoma
[41] = test system: SK-MEL-5 melanoma
[42] = test system: SK-OV-3 ovarian
[43] = test system: SN12C renal
[44] = test system: SNB-19 CNS
[45] = test system: SNB-75 CNS
[46] = test system: SNB-78 CNS
[47] = test system: SR leukemia
[48] = test system: SW-620 colon
[49] = test system: TK-10 renal
[50] = test system: U251 CNS
[51] = test system: UACC-257 melanoma
[52] = test system: UACC-62 melanoma
[53] = test system: UO-31 renal
[54] = test system: XF 498 CNS

## COc1ccc(C2C(Cl)C(=O)N2n2cnc3ccccc3c2=O)cc1 (centres undefined)
[1]
  TGI: > 100 µM
[2]
  TGI: > 100 µM
[3]
  TGI: > 100 µM
[4]
  TGI: > 100 µM
[5]
  TGI: > 100 µM
[6]
  TGI: > 100 µM
[7]
  TGI: > 100 µM
[8]
  TGI: > 100 µM
[9]
  TGI: > 100 µM
[10]
  TGI: > 100 µM
[11]
  TGI: > 100 µM
[12]
  TGI: > 100 µM
[13]
  TGI: > 100 µM
[14]
  TGI: > 100 µM
[15]
  TGI: > 100 µM
[16]
  TGI: > 100 µM
[17]
  TGI: > 100 µM
[18]
  TGI: > 100 µM
[19]
  TGI: > 100 µM
[20]
  TGI: > 100 µM
[21]
  TGI: > 100 µM
[22]
  TGI: > 100 µM
[23]
  TGI: 91.6 µM
[24]
  TGI: > 100 µM
[25]
  TGI: > 100 µM
[26]
  TGI: > 100 µM
[27]
  TGI: > 100 µM
[28]
  TGI: > 100 µM
[29]
  TGI: > 100 µM
[30]
  TGI: > 100 µM
[31]
  TGI: > 100 µM
[32]
  TGI: > 100 µM
[33]
  TGI: > 100 µM
[34]
  TGI: > 100 µM
[35]
  TGI: > 100 µM
[36]
  TGI: > 100 µM
[37]
  TGI: > 100 µM
[38]
  TGI: > 100 µM
[39]
  TGI: > 100 µM
[40]
  TGI: > 100 µM
[41]
  TGI: > 100 µM
[42]
  TGI: > 100 µM
[43]
  TGI: > 100 µM
[44]
  TGI: > 100 µM
[45]
  TGI: 86.2 µM
[46]
  TGI: > 100 µM
[47]
  TGI: > 100 µM
[48]
  TGI: > 100 µM
[49]
  TGI: > 100 µM
[50]
  TGI: > 100 µM
[51]
  TGI: > 100 µM
[52]
  TGI: > 100 µM
[53]
  TGI: > 100 µM
[54]
  TGI: > 100 µM
